Converted amounts (≈) assume the structure as drawn.
Settings: buffer; pH 7.4; 200.0 µM

Compound | solubility kinetic [µg/mL]
O=C(CN1C(=O)NC2(CCCC2)C1=O)NCc1ccccc1 | > 45.2
CCc1ccccc1OCC(=O)Nc1ccc2c(c1)OCCO2 | 15.9 (≈ 50.7 µM)
COc1cccc(C(=O)CC(=O)C(=O)Nc2cccc([N+](=O)[O-])c2C)c1 | 31.6 (≈ 88.7 µM)
Cn1ncc(C(=O)Nc2ccc(Cl)cc2)c1C(F)(F)F | > 45.6
CCN(CC)CCN(C(=O)/C=C/c1cccs1)c1nc2ccc(C)cc2s1.Cl | 0.6
Cc1ccoc1C(=O)Nc1cccc2ccccc12 | 33.9 (≈ 135 µM)
Cc1ccc(NC(=O)CSc2cccc3cccnc23)c(C)c1 | 5.2 (≈ 16.1 µM)
CCOc1ccc(N2C(=O)S/C(=C\c3ccc(O)c(OCC)c3)C2=O)cc1 | < 0.8
CCN1CCC(O)(C#Cc2ccccc2)CC1 | 33.5 (≈ 146 µM)
COc1ccc(OC)c(/C=C/C(=O)OCC(=O)N2CCCCC2)c1 | > 50
CCn1c(SCC(=O)NC2CCCC2)nnc1-c1ccco1 | > 48.1
CN(C(=O)COC(=O)c1cc2ccccc2oc1=O)C1CCCCC1 | 47.7 (≈ 139 µM)
CC(=O)NCCNC(=O)c1ccc(-n2c(C)ccc2C)cc1 | 35.3 (≈ 118 µM)
CCC1C(=O)N=C(SCC(=O)Nc2nc3ccccc3s2)NC1=O (stereo not given) | > 54.4
CCCOc1ccc(CSC(=N)N)cc1C(=O)OC.Cl | 42.6
O=C(Cc1cccc(C(F)(F)F)c1)NCc1cccnc1 | > 44.1
O=C(CSc1nnc(NC(=O)c2ccccc2F)s1)NC1CC1 | > 52.9
CC1CCN(c2nc3ccccn3c(=O)c2C=O)CC1 | > 40.7
COc1ccc(NC(=O)C(=O)Nc2cccc3cccnc23)cc1OC | < 0.3

Compound | solubility kinetic [µg/mL]
Cn1nccc1C(=O)N1CCC(Cc2ccccc2)CC1 | > 42.5
CC(C)c1ccc(CNc2ncc(Br)cn2)cc1 | 0.4 (≈ 1.31 µM)
CCc1ccc(NC(=O)C2CCCN2C(=O)NC2CCCCC2)cc1 (stereo not given) | 1.1 (≈ 3.2 µM)
N#Cc1cccnc1N1CCN(C(=O)c2ccccc2)CC1 | 43.4 (≈ 148 µM)
c1ccc2[nH]c(-c3cscn3)nc2c1 | > 30.2
CCOc1ccc(CCNC(=O)Nc2ccccc2C)cc1OCC | 3.2 (≈ 9.34 µM)
Cc1ccc(OCC(=O)N2CC(C)CC(C)C2)c([N+](=O)[O-])n1 (stereo not given) | > 46.1
CC1=CC2=NC(=O)/C(=C/c3cccn3Cc3ccccc3)C(=N)N2O1 | 2.7 (≈ 8.12 µM)
Cc1cc(=O)n2c3ccccc3n(CC(O)CN3CCOCC3)c2c1C#N (stereo not given) | > 55
CCOc1ccccc1NC(=O)c1cnccn1 | > 36.5
c1ccc(CN2CCN(Cc3ccc4ccccc4c3)CC2)cc1 | 23.4 (≈ 73.9 µM)
CCN1CCN(C(=O)C(N)Cc2ccccc2)CC1 (stereo not given) | 37.5 (≈ 143 µM)
CC(NC(=O)c1cccs1)c1ccc(Br)cc1 (stereo not given) | 3.8 (≈ 12.2 µM)
CNC(=S)N(Cc1ccc(Cl)cc1)Cc1cccs1 | 16 (≈ 51.5 µM)
O=C(O)CN1C(=O)C(=O)N(Cc2c(F)cccc2Cl)C1=O | 45.5 (≈ 145 µM)
CC(C)c1ccc(C(=O)OCC(=O)c2c(N)n(C)c(=O)n(C)c2=O)cc1 | 4.4 (≈ 12.2 µM)
O=C1CSC(c2ccc([N+](=O)[O-])cc2)N1c1ccccc1F (stereo not given) | > 47.7
Cc1sc2ncnc(SCC(=O)N3CCCC(C(F)(F)F)C3)c2c1C (stereo not given) | 2.7 (≈ 6.93 µM)
Cc1ccc(N2C(=O)CC(C)(C)CC2=O)cc1Cl | 12.5 (≈ 47 µM)

Further lines, results first:

solubility kinetic [µg/mL] | Compound
1.4 (≈ 4.03 µM) | O=C(c1ccc(F)cc1F)C1CCN(c2ccc([N+](=O)[O-])cn2)CC1
5.3 (≈ 21.1 µM) | Cc1cccc(Nc2nc(Cl)ncc2F)c1C
41.6 (≈ 141 µM) | O=C(NCCc1ccc(F)cc1)c1ccc2nccnc2c1
36.9 (≈ 128 µM) | CCCCC(=O)Nc1ccc(NC(=O)c2ccco2)cn1
41.5 | Cl.O=C(c1cc2ccccc2o1)N1CCN(Cc2ccccc2)CC1
4.8 (≈ 15.3 µM) | CCC(C)NC(=O)COc1ccc(OCc2ccccc2)cc1 (stereo not given)
5.2 (≈ 18.5 µM) | CCOc1ccccc1CNc1nc2ccccc2n1C
31.3 (≈ 92.5 µM) | CCOC(=O)C1(Cc2ccccc2)CCCN(Cc2ccncc2)C1 (stereo not given)
0.9 (≈ 3.2 µM) | Cc1ccc(C)c(Nc2nc(-c3cccnc3)cs2)c1
51.9 (≈ 139 µM) | O=S(=O)(Nc1cccc(S(=O)(=O)N2CCCC2)c1)c1cccs1
19.6 (≈ 68 µM) | CC(=O)c1ccc(Sc2ccccc2N)c([N+](=O)[O-])c1
> 41.4 | CC(=O)N1CCN(C(=O)c2ccc3c(c2)OCO3)CC1
43 (≈ 140 µM) | O=C(c1ccc2[nH]c(=O)c(=O)[nH]c2c1)N1CCc2ccccc21
< 0.3 | O=[N+]([O-])c1ccc2oc(-c3ccccc3)nc2c1
> 38.2 | O=C(COC(=O)C1CC1)Nc1ccc(Cl)cn1
22.8 (≈ 88.3 µM) | CCCCn1c(=O)cc(C)n(-c2ccccc2)c1=O
> 33.9 | Cc1nc2c(cnn2-c2ccccc2)c(=O)[nH]1
40.6 | Cc1c(CCOC(=O)c2ccc(Cl)cc2Cl)sc[n+]1CC(=O)c1ccc(Br)cc1.[Br-]
> 42 | O=C(NCc1ccccn1)c1n[nH]c(=O)c2ccccc12
36.7 (≈ 142 µM) | CC1(C)CC(=O)C=C(NCC(O)c2ccccc2)C1 (stereo not given)
3.8 (≈ 11.2 µM) | COc1ccccc1CNC(=O)COC(=O)c1cc2ccccc2o1
49 (≈ 143 µM) | O=C1c2ccc(Oc3ccc([N+](=O)[O-])cc3)cc2C(=O)N1CCCO
